What was measured:
[1] = tested on: influenza virus subtype A mice-lung adaptive strain FM1; details: mouse, in vivo
[2] = tested on: mouse lung cancer LL2 cell; experiment: LL2 lung cancer tumor-bearing mouse model; type: in vivo; details: cisplatin 5 mg/kg, tail vein injection once a week
Text: The tumor cells in this model grew rapidly, with tumor volume of 2201.9 mm^3±68.01 mm^3 on the 14th day after the inoculation and the experiment was over. […] As explanation, the cisplatin group is more likely to show efficacy in this model with very rapid cell division.

[3] = in vivo; cited from earlier work

Molecule: NC(=O)c1ncn([C@@H]2O[C@H](CO)[C@@H](O)[C@H]2O)n1 [Ribavirin]
- X^2 [1]: 1.64

Molecule: N.N.[Cl][Pt][Cl] [cisplatin]
- T/Cb (%) [2]: 28.9%
- TV at day 14 [2]: 637.79 ± 62.87 mm^3

Molecule: polyinosinic-polycytidylic acid with poly-L-lysine and carboxymethyl cellulose [PICLC]
- fever [3]: 100%
- hypotension [3]: 50%
- myalgia [3]: 50%
